# Biological target: T1, Androgen Receptor (AR) (Homo sapiens, UniProt P10275, T878A)
# T1 construct: cell based immuno-fluorescence assay using the LNCaP prostate epithelial cell line; endogenous in cells; host or cells: LNCaP clone FGC (ATCC CRL-1740)
# T1 sequence (P10275 1-920 T878A): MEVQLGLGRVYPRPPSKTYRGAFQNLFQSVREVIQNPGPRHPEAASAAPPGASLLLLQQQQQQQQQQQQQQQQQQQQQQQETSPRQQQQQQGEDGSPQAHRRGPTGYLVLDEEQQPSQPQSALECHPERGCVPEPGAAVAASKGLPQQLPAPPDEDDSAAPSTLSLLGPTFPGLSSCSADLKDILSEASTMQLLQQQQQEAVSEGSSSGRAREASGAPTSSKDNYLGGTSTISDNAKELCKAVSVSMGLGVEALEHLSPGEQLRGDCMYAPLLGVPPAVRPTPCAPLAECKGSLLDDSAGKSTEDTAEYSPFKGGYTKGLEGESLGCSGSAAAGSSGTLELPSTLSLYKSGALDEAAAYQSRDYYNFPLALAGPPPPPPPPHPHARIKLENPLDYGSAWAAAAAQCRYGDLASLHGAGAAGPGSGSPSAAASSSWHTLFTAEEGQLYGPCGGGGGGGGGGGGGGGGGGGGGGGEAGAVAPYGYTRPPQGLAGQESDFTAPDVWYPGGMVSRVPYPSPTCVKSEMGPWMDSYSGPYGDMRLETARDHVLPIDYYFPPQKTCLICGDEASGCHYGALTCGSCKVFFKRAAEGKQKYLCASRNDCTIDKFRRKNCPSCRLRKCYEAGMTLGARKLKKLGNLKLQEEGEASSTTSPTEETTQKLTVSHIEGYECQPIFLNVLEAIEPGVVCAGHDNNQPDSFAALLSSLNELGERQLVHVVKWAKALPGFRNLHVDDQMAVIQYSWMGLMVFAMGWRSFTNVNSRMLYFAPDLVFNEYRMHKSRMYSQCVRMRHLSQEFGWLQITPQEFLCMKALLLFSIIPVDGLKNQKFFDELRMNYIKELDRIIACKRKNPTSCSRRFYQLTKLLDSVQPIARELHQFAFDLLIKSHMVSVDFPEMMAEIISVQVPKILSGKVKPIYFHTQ
# Assay: LNCaP Androgen Receptor Down-regulation Cell Assay (immunofluorescence end point)
# Assay type: cell-based
# Details: LNCaP prostate carcinoma cells, compound incubation 20-22 hours, 50% reduction of the AR signal; read-out: Androgen Receptor Down-regulation Assay (a) IC50/μM
# How it was run: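 AR loss reported as IC50 from curve fits of fluorescence dose-response data, with AR immunostained and read by laser-scanning cytometry. Compound exposure was 20-22 h at 37° C in LNCaP cells grown in 5% charcoal-stripped FBS and plated overnight beforehand.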
row,DC50 [µM],SMILES
1,0.9,FC(F)(F)c1nnc2ccc(N3CCC(Oc4ncccc4Br)CC3)nn12 [Example 723]
2,0.69,FC(F)(F)c1nnc2ccc(N3CCC(Oc4ccc(Cl)cc4)CC3)nn12 [Example 724]
3,1.4,CN(C)CCCOc1ccc(C2CCN(c3ccc4nnc(C(F)(F)F)n4n3)CC2)cc1 [Example 726]
4,1.5,"FC(F)(F)c1nnc2ccc(N3CCC(c4ccc(OCCCN5CCNCC5)cc4)CC3)nn12 [Example 728, 6-[4-[4-(3-piperazin-1-ylpropoxy)phenyl]piperidin-1-yl]-3-(trifluoromethyl)[1,2,4]triazolo[4,3-b]pyridazine]"
5,0.92,Cc1cc(COc2ccc(C3CCN(c4ccc5nnc(C(F)(F)F)n5n4)CC3)cc2)no1 [Example 729]
6,0.72,CN(C)CCOc1ccc(C2CCN(c3ccc4nnc(C(F)(F)F)n4n3)CC2)cc1 [Example 730]
7,1.1,FC(F)(F)c1nnc2ccc(N3CCC(c4ccc(OCCN5CCOCC5)cc4)CC3)nn12 [Example 731]
8,1.1,CN1CCN(CCCOc2ccc(C3CCN(c4ccc5nnc(C(F)(F)F)n5n4)CC3)cc2)CC1 [Example 732]
9,0.6,FC(F)(F)c1nnc2ccc(N3CCC(c4ccc(OCc5ccon5)cc4)CC3)nn12 [Example 733]
10,2.5,FC(F)(F)c1nnc2ccc(N3CCC(c4ccc(OCc5cnco5)cc4)CC3)nn12 [Example 734]
11,1.9,CN1CCN(CCOc2ccc(C3CCN(c4ccc5nnc(C(F)(F)F)n5n4)CC3)cc2)CC1 [Example 735]
12,0.4,Cn1nccc1COc1ccc(C2CCN(c3ccc4nnc(C(F)(F)F)n4n3)CC2)cc1 [Example 736]
13,0.74,"OCCOc1cccc(C2CCN(c3ccc4nnc(C(F)(F)F)n4n3)CC2)c1 [Example 737, 2-[3-[1-[3-(trifluoromethyl)[1,2,4]triazolo[4,3-b]pyridazin-6-yl]piperidin-4-yl]phenoxy]ethanol]"
14,3.3,O=C(c1ccc(C2CCN(c3ccc4nnc(C(F)(F)F)n4n3)CC2)cc1)N1CC[C@@H](O)C1 [Example 738]
15,3.2,O=C(c1ccc(C2CCN(c3ccc4nnc(C(F)(F)F)n4n3)CC2)cc1)N1CC[C@H](O)C1 [Example 739]
16,2,O=C(c1ccc(C2CCN(c3ccc4nnc(C(F)(F)F)n4n3)CC2)cc1)N1CCC(O)CC1 [Example 740]
17,2.2,CN(CCS(C)(=O)=O)C(=O)c1ccc(C2CCN(c3ccc4nnc(C(F)(F)F)n4n3)CC2)cc1 [Example 741]
18,9.6,CN1CCN(C(=O)c2ccc(N3CCN(c4ccc5nnc(C(F)(F)F)n5n4)CC3)cc2)CC1 [Example 744]
19,3.4,COCCNC(=O)c1ccc(N2CCN(c3ccc4nnc(C(F)(F)F)n4n3)CC2)cc1 [Example 745]
20,3.3,CN(C)C(=O)c1ccc(N2CCN(c3ccc4nnc(C(F)(F)F)n4n3)CC2)cc1 [Example 746]
21,23,O=C(c1ccc(N2CCN(c3ccc4nnc(C(F)(F)F)n4n3)CC2)cc1)N1CC[C@@H](O)C1 [Example 747]
22,5.6,O=C(c1ccc(N2CCN(c3ccc4nnc(C(F)(F)F)n4n3)CC2)cc1)N1CCCC1 [Example 748]
23,> 22,O=C(c1ccc(N2CCN(c3ccc4nnc(C(F)(F)F)n4n3)CC2)cc1)N1CCOCC1 [Example 749]
24,2.6,O=C(NCCN1CCOCC1)c1ccc(N2CCN(c3ccc4nnc(C(F)(F)F)n4n3)CC2)cc1 [Example 750]
25,6.3,COCCN(C)C(=O)c1ccc(N2CCN(c3ccc4nnc(C(F)(F)F)n4n3)CC2)cc1 [Example 751]
26,2.1,"CN(CCN1CCCC1=O)C(=O)c1ccc(C2CCN(c3ccc4nnc(C(F)(F)F)n4n3)CC2)cc1 [Example 753, N-methyl-N-[2-(2-oxopyrrolidin-1-yl)ethyl]-4-[1-[3-(trifluoromethyl)[1,2,4]triazolo[4,3-b]pyridazin-6-yl]piperidin-4-yl]benzamide]"

row,DC50 [µM],SMILES
1,2.5,"CN(CCN1CCOCC1)C(=O)c1ccc(C2CCN(c3ccc4nnc(C(F)(F)F)n4n3)CC2)cc1 [Example 754, N-methyl-N-(2-morpholin-4-ylethyl)-4-[1-[3-(trifluoromethyl)[1,2,4]triazolo[4,3-b]pyridazin-6-yl]piperidin-4-yl]benzamide]"
2,2.2,FC(F)(F)c1nnc2ccc(N3CCN(c4ccc(OCCN5CCCC5)cc4)CC3)nn12 [Example 755]
3,> 12,FC(F)(F)c1nnc2ccc(N3CCN(c4ccc(OCc5ccon5)cc4)CC3)nn12 [Example 757]
4,3.9,Fc1cc(Cl)cc(CN2CCN(c3ccc4nnc(C(F)(F)F)n4n3)CC2)c1 [Example 759]
5,> 3.1,Fc1cc(CN2CCN(c3ccc4nnc(C(F)(F)F)n4n3)CC2)cc(C(F)(F)F)c1 [Example 760]
6,1.5,Fc1cccc(CN2CCN(c3ccc4nnc(C(F)(F)F)n4n3)CC2)c1C(F)(F)F [Example 761]
7,> 9.8,Fc1cc(F)c(F)c(CN2CCN(c3ccc4nnc(C(F)(F)F)n4n3)CC2)c1 [Example 763]
8,2.5,Fc1ccc(F)c(CN2CCN(c3ccc4nnc(C(F)(F)F)n4n3)CC2)c1F [Example 764]
9,8.8,CS(=O)(=O)c1ccc(F)cc1CN1CCN(c2ccc3nnc(C(F)(F)F)n3n2)CC1 [Example 765]
10,> 17,Fc1ccc(CN2CCN(c3ccc4nnc(C(F)(F)F)n4n3)CC2)c(F)c1F [Example 766]
11,> 12,Fc1cc(CN2CCN(c3ccc4nnc(C(F)(F)F)n4n3)CC2)cc(F)c1F [Example 767]
12,4.7,Fc1cccc(CN2CCN(c3ccc4nnc(C(F)(F)F)n4n3)CC2)c1Cl [Example 768]
13,6.3,FC(F)(F)c1nnc2ccc(N3CCN(Cc4cncc(Cl)c4)CC3)nn12 [Example 770]
14,8,FC(F)(F)c1nnc2ccc(N3CCN(Cc4cncc(Br)c4)CC3)nn12 [Example 774]
15,6.8,COc1ncccc1CN1CCN(c2ccc3nnc(C(F)(F)F)n3n2)CC1 [Example 775]
16,6.9,Cc1ccc(CN2CCN(c3ccc4nnc(C(F)(F)F)n4n3)CC2)cn1 [Example 776]
17,4.6,FC(F)(F)c1ncccc1CN1CCN(c2ccc3nnc(C(F)(F)F)n3n2)CC1 [Example 777]
18,2.6,"CS(=O)(=O)c1cc(F)cc(CN2CCN(c3ccc4nnc(C(F)(F)F)n4n3)CC2)c1 [Example 778, 6-[4-[3-fluoro-5-(methylsulfonyl)benzyl]piperazin-1-yl]-3-(trifluoromethyl)[1,2,4]triazolo[4,3-b]pyridazine]"
19,0.54,"Fc1ccc(C(F)F)c(CN2CCN(c3ccc4nnc(C(F)(F)F)n4n3)CC2)c1 [Example 779, 6-[4-[2-(difluoromethyl)-5-fluorobenzyl]piperazin-1-yl]-3-(trifluoromethyl)[1,2,4]triazolo[4,3-b]pyridazine]"
20,0.51,"Fc1ccc(C(F)F)c(CN2CCN(c3ccc4nnc(C(F)F)n4n3)CC2)c1 [Example 780, 3-(difluoromethyl)-6-[4-[2-(difluoromethyl)-5-fluorobenzyl]piperazin-1-yl][1,2,4]triazolo[4,3-b]pyridazine]"
21,0.82,"Fc1cccc(CN2CCN(c3ccc4nnc(C(F)(F)F)n4n3)CC2)c1C(F)F [Example 781, 6-[4-[2-(difluoromethyl)-3-fluorobenzyl]piperazin-1-yl]-3-(trifluoromethyl)[1,2,4]triazolo[4,3-b]pyridazine]"
22,2,"Fc1cccc(CN2CCN(c3ccc4nnc(C(F)F)n4n3)CC2)c1C(F)F [Example 782, 3-(difluoromethyl)-6-[4-[2-(difluoromethyl)-3-fluorobenzyl]piperazin-1-yl][1,2,4]triazolo[4,3-b]pyridazine]"
23,0.84,"Fc1cc(CN2CCN(c3ccc4nnc(C(F)(F)F)n4n3)CC2)cc(C(F)F)c1 [Example 783, 6-[4-[3-(difluoromethyl)-5-fluorobenzyl]piperazin-1-yl]-3-(trifluoromethyl)[1,2,4]triazolo[4,3-b]pyridazine]"
24,2.2,"Fc1cc(CN2CCN(c3ccc4nnc(C(F)F)n4n3)CC2)cc(C(F)F)c1 [Example 784, 3-(difluoromethyl)-6-[4-[3-(difluoromethyl)-5-fluorobenzyl]piperazin-1-yl][1,2,4]triazolo[4,3-b]pyridazine]"
25,1.7,"Cc1cc(CN2CC3CN(c4ccc5nnc(C(F)(F)F)n5n4)CC3C2)ccn1 (stereo not drawn) [Example 785, 6-[5-[(2-methylpyridin-4-yl)methyl]hexahydropyrrolo[3,4-c]pyrrol-2(1H)-yl]-3-(trifluoromethyl)[1,2,4]triazolo[4,3-b]pyridazine]"

# — patent US8003649B2 (AstraZeneca AB, priority 2007, dated 2011)
